Experimental data as given in patent US5874443A, “Isoquinoline derivatives and isoquinoline combinatorial libraries” (Trega Biosciences, Inc., priority 1996, dated 1999).
Entries after “also recorded” stand apart in the source; their conditions may differ.

These compounds were tested against T1, σ receptor (Rattus norvegicus, UniProt Q9R0C9) (assay: σ receptor radio-receptor assay, inhibition of radiolabeled pentazocine binding). Conditions: Table IV; individual compounds, R1 varied.
T1 construct: The brains are thawed, the cerebella removed and the remaining tissue weighed; tissue Rockland (Gilbertsville, Pa.); host or cells: rat brain without cerebellum, crude particulate membranes
T1 sequence (Q9R0C9 whole entry): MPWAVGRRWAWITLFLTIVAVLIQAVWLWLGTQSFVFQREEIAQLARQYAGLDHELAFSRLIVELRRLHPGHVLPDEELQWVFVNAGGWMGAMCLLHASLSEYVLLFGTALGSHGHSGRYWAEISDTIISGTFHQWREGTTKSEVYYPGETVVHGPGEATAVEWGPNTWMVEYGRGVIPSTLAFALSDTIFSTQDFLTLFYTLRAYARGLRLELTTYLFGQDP

First: COc1ccc(Cc2ccc(C3C(C(=O)NCC45CC6CC(CC(C6)C4)C5)c4ccccc4C(=O)N3CCCCCCC(N)=O)o2)cc1 (centres unmarked) [Compound 1]
Second: COc1ccc(Cc2ccc(C3C(C(=O)NCC45CC6CC(CC(C6)C4)C5)c4ccccc4C(=O)N3CCCCC(N)=O)o2)cc1 (centres unmarked) [Pool 9]
The IC50 of the first is 4.1-fold lower: 56 nM for the first, 231 nM for the second. The first is the more potent here.

Going from `COc1ccc(Cc2ccc(C3C(C(=O)NCC45CC6CC(CC(C6)C4)C5)c4ccccc4C(=O)N3C[C@H](N)C(N)=O)o2)cc1` (some centres unmarked) [Compound 3] to `COc1ccc(Cc2ccc(C3C(C(=O)NCC45CC6CC(CC(C6)C4)C5)c4ccccc4C(=O)N3CC(N)=O)o2)cc1` (centres unmarked) [Pool 6], the IC50 rises from 71 nM to 124 nM (1.7-fold).

Compared with `COc1ccc(Cc2ccc(C3C(C(=O)NCC45CC6CC(CC(C6)C4)C5)c4ccccc4C(=O)N3C[C@H]3CC[C@H](C(N)=O)CC3)o2)cc1` (some centres unmarked) [Pool 2], `COc1ccc(Cc2ccc(C3C(C(=O)NCC45CC6CC(CC(C6)C4)C5)c4ccccc4C(=O)N3CCC(N)=O)o2)cc1` (centres unmarked) [Pool 10] is 5.2-fold higher in IC50: 68 nM for the first, 355 nM for the second. The first is the more potent here.

`COc1ccc(Cc2ccc(C3C(C(=O)NCC45CC6CC(CC(C6)C4)C5)c4ccccc4C(=O)N3CCOCCOCC(N)=O)o2)cc1` (centres unmarked) [Pool 5] and `COc1ccc(Cc2ccc(C3C(C(=O)NCC45CC6CC(CC(C6)C4)C5)c4ccccc4C(=O)N3CCCC[C@H](N)C(N)=O)o2)cc1` (some centres unmarked) [Pool 8] are within 1.5-fold of each other in IC50: 117 nM for the first, 150 nM for the second.

`COc1ccc(Cc2ccc(C3C(C(=O)NCC45CC6CC(CC(C6)C4)C5)c4ccccc4C(=O)N3Cc3ccc(C(N)=O)cc3)o2)cc1` (centres unmarked) [Pool 7] gave an IC50 of 130 nM.

Same assay, conditions: in words; Example 44

With `COc1ccc(Cc2ccc(C3C(C(=O)NCC45CC6CC(CC(C6)C4)C5)c4ccccc4C(=O)N3CCCCCCC(N)=O)o2)cc1` (centres unmarked) [Compound 1] the “activity in the σ receptor assay (iterative approach)” value was “most active”.

Same assay, conditions: in words; Example 51

With `COc1ccc(Cc2ccc(C3C(C(=O)NCC4CCCCC4)c4ccccc4C(=O)N3CCCCCCC(N)=O)o2)cc1` (centres unmarked) the “activity in the σ receptor screen (positional scan)” value was “most active; also recorded: virtually equal activity”.
